Assay results from PMC4581723, “Evaluation of In Vitro Activity of the Class I PI3K Inhibitor Buparlisib (BKM120) in Pediatric Bone and Soft Tissue Sarcomas” (PLoS ONE, 2015).
Where two headings read alike, the source gives them in different places.

Tests used:
A204 = experiment: Cell viability assay (MTT), 72 h; format: cell-based; settings: Homo sapiens, A204 (RMS), PIK3CA WT, read-out: Buparlisib cell viability IC50
phospho-Akt (S473) = experiment: Immunoblot (quantitative) of Akt phosphorylation; format: cell-based
MNNG = experiment: Cell viability assay (MTT), 72 h; format: cell-based; settings: MNNG (OS), read-out: Buparlisib cell viability IC50
phospho-p70 S6K (T389) = experiment: Immunoblot of signaling downstream of mTORC1; format: cell-based; settings: increasing doses; one hour; compared with 4E-BP1
Description: (§1) Cells were incubated for approximately one hour on ice in lysis buffer (50 mM Tris pH 7.6, 0.5% NP-40, 10% glycerol, 30 mM NaCl, 1 mM EDTA) supplemented with Complete Mini EDTA-free protease inhibitor cocktail (Roche), 1 mM Na3VO4, and 1 mM NaF. […] Secondary antibodies conjugated to HRP were sheep anti-mouse IgG from GE Healthcare and goat anti-rabbit IgG from Santa Cruz Biotechnology. Secondary antibodies conjugated to infrared dyes were IRDye 800CW goat anti-mouse IgG and IRDye 680RD goat anti-rabbit IgG from LI-COR Biosciences. Fluorescent westerns were imaged using the Odyssey Infrared Imaging System (LI-COR Biosciences). Signals were quantified by measuring the integrated intensity values of each band using Odyssey software (LI-COR Biosciences).
(§2) We next evaluated the ability of buparlisib to inhibit cellular signaling downstream of PI3K. Increasing doses were added to cells and phosphorylation of signaling molecules was examined by immunoblot after one hour of treatment (Fig 2A). […] Phospho-Akt levels were normalized to levels of total Akt and fit to dose-response curves to calculate the half maximal inhibitory concentration (IC50) (Fig 2B).
(§3) Each data point represents the average of at least three independent experiments.

phospho-4E-BP1 (T37/46) = experiment: Immunoblot of signaling downstream of mTORC1; format: cell-based
Description: as §1, §2, §3

[1] = test system: ES (TC-174, A4573), OS (KHOS, MNNG), and RMS (RD) colonies; experiment: Soft agar assay (anchorage independent growth); format: cell-based; settings: 14 days
Description: After 14 days of growth, colonies were stained with 0.005% crystal violet, imaged, and quantified using ImageJ. […] Increasing concentrations reduced both soft agar colony number and size (Fig 5A). Cell growth was inhibited within a narrower range than observed for anchorage dependent growth. […] (A) Plot of number and size of ES (TC-174, […]), OS (KHOS, MNNG), and RMS (RD) colonies formed in soft agar in the presence of DMSO or increasing concentrations of buparlisib. Columns represent the average of three replicates, error bars represent standard deviation. (B) Representative pictures of TC-174 soft agar colonies. (C) Immunoblot analysis of cleaved PARP in ES (TC-174, TC-32, […]), OS (KHOS), and RMS (RD, SJCRH30) treated with increasing doses of buparlisib for 24 hours. (D) Cell cycle analysis after 24 hours of buparlisib treatment of ES (TC-174, […]), OS (KHOS), and RMS (RD) cell lines. Data are the mean of two independent experiments.

cleaved PARP = experiment: Immunoblot of PARP cleavage (apoptosis); format: cell-based
Description: The primary antibodies used for these studies were rabbit anti-PTEN, rabbit anti-phospho-Akt (Ser473), rabbit anti-phospho-Akt (Thr308), mouse anti-Akt (pan), rabbit anti-phospho-p44/42 MAPK (Erk1/2) (T202/[…] on Erk1, […]/[…] on Erk2), mouse anti-p44/42 MAPK (Erk1/2), mouse anti-phospho-p70 S6 Kinase (Thr389), rabbit anti-p70 S6 Kinase, rabbit anti-phospho-4E-BP1 (Thr37/46), rabbit anti-4E-BP1, rabbit anti-STAT3 (Y705), mouse anti-STAT3, and rabbit anti-cleaved PARP from Cell Signaling Technology; and mouse anti-β-actin from Sigma. Secondary antibodies conjugated to HRP were sheep anti-mouse IgG from GE Healthcare and goat anti-rabbit IgG from Santa Cruz Biotechnology. Secondary antibodies conjugated to infrared dyes were IRDye 800CW goat anti-mouse IgG and IRDye 680RD goat anti-rabbit IgG from LI-COR Biosciences. Fluorescent westerns were imaged using the Odyssey Infrared Imaging System (LI-COR Biosciences). Signals were quantified by measuring the integrated intensity values of each band using Odyssey software (LI-COR Biosciences). […] This occurs as a result of the ability of buparlisib to inhibit tubulin polymerization at higher concentrations.

HOS = experiment: Cell viability assay (MTT), 72 h; format: cell-based; settings: Homo sapiens, HOS (OS), PIK3CA WT, read-out: Buparlisib cell viability IC50
A4573 = experiment: Cell viability assay (MTT), 72 h; format: cell-based; settings: A4573 (ES), PIK3CA WT, read-out: Buparlisib cell viability IC50
SK-N-MC = experiment: Cell viability assay (MTT), 72 h; format: cell-based; settings: Homo sapiens, SK-N-MC (ES), PIK3CA WT, read-out: Buparlisib cell viability IC50
KHOS = experiment: Cell viability assay (MTT), 72 h; format: cell-based; settings: KHOS (OS), PIK3CA WT, read-out: Buparlisib cell viability IC50
MCF-7 = experiment: Cell viability assay (MTT), 72 h; settings: read-out: Buparlisib cell viability IC50, MCF-7 (breast), PIK3CA E545K
Description: Cells were seeded in 96-well plates and drugs were added after overnight incubation, with each treatment condition performed in triplicate. After drug treatment, 10 μl of 5 mg/ml MTT (3-(4,5-dimethylthiazolyl-2)-2, 5-diphenyltetrazolium bromide) in PBS was added to cells and allowed to incubate for 2–4 hours at 37°C. […] Plate absorbance was read at 595 nm using a Bio-rad microplate reader. Percent viability was calculated by normalizing absorbance values to those from cells grown in media without drug after background subtraction. IC50 values were calculated by fitting dose-response curves to a four-parameter, variable slope sigmoid dose-response model (Prism Software, GraphPad).

5838 = experiment: Cell viability assay (MTT), 72 h; format: cell-based; settings: 5838 (ES), PIK3CA WT, read-out: Buparlisib cell viability IC50
SJCRH30 = experiment: Cell viability assay (MTT), 72 h; format: cell-based; settings: SJCRH30 (RMS), PIK3CA WT, read-out: Buparlisib cell viability IC50
TC-248 = experiment: Cell viability assay (MTT), 72 h; format: cell-based; settings: TC-248 (ES), PIK3CA WT, read-out: Buparlisib cell viability IC50
RD = experiment: Cell viability assay (MTT), 72 h; format: cell-based; settings: Homo sapiens, RD (RMS), PIK3CA WT, read-out: Buparlisib cell viability IC50
TC-174 = experiment: Cell viability assay (MTT), 72 h; format: cell-based; settings: TC-174 (ES), PIK3CA WT, read-out: Buparlisib cell viability IC50

## Nc1cc(C(F)(F)F)c(-c2cc(N3CCOCC3)nc(N3CCOCC3)n2)cn1 [Buparlisib]
A204
  IC50: 526 nM
phospho-Akt (S473); combination with NVP-AEW541, A4573 cells, one hour of treatment
  phospho-Akt levels compared to each drug alone: reduced phospho-Akt levels
phospho-Akt (S473); time course 5 min to 24 h, 1 μM (3 μM in A4573)
  time to maximum inhibition of Akt: approximately one
MNNG
  IC50: 1600 nM
phospho-p70 S6K (T389)
  Phosphorylation of S6K: more potently inhibited
phospho-4E-BP1 (T37/46); increasing doses, one hour
  Inhibition of phospho-4E-BP1: only observed at high buparlisib concentrations
phospho-4E-BP1 (T37/46); treatment with both buparlisib and rapamycin, A4573 cells
  phosphorylation of 4E-BP1: more potently suppressed
[1]
  concentrations at which no soft agar colony formation occurred: greater than 2 μM
  concentrations with minimal effects on soft agar colony formation: less than 1 μM
Cleaved PARP; 24 hours of drug treatment, sarcoma cell lines
  concentrations resulting in increased PARP cleavage (apoptosis): greater than 1.0 μM
Cleaved PARP; ES cell lines, 24 h
  induction of apoptosis (PARP cleavage): potent induction of apoptosis
Cleaved PARP; OS and RMS cell lines, 24 h
  induction of apoptosis (PARP cleavage): modest
Cleaved PARP; combination with NVP-AEW541, A4573 cells, all dose levels, 24 hours
  apoptosis as measured by PARP cleavage: increased apoptosis
Cleaved PARP; combination with rapamycin, A4573 cells, 24 h
  apoptosis (PARP cleavage): did not increase apoptosis
Cleaved PARP; combined with trametinib, A673 cells, 24 h
  apoptosis as measured by PARP cleavage compared to buparlisib alone: no increase in apoptosis
HOS
  IC50: 1840 nM
A4573
  IC50: 1560 nM
SK-N-MC
  IC50: 899 nM
KHOS
  IC50: 1570 nM
MCF-7; Homo sapiens, MCF7, 72 h
  IC50: 173 nM
MCF-7
  IC50: 173 nM
5838
  IC50: 1610 nM
SJCRH30
  IC50: 1000 nM
TC-248
  IC50: 816 nM
RD
  IC50: 1070 nM
TC-174
  IC50: 1040 nM
